Key:
[1] = target: T1, human TLR7 (Homo sapiens, UniProt Q9NYK1); test: Human TLR7 agonist activity (reporter) assay; assay type: cell-based; settings: HEK-Blue TLR7 cells, SEAP reporter, 18 h treatment; average where assay performed multiple times; read-out: hTLR7 Agonism EC50
T1 construct: host or cells: HEK-Blue TLR7 cells (engineered human embryonic kidney cells)
T1 sequence (Q9NYK1 27-1049): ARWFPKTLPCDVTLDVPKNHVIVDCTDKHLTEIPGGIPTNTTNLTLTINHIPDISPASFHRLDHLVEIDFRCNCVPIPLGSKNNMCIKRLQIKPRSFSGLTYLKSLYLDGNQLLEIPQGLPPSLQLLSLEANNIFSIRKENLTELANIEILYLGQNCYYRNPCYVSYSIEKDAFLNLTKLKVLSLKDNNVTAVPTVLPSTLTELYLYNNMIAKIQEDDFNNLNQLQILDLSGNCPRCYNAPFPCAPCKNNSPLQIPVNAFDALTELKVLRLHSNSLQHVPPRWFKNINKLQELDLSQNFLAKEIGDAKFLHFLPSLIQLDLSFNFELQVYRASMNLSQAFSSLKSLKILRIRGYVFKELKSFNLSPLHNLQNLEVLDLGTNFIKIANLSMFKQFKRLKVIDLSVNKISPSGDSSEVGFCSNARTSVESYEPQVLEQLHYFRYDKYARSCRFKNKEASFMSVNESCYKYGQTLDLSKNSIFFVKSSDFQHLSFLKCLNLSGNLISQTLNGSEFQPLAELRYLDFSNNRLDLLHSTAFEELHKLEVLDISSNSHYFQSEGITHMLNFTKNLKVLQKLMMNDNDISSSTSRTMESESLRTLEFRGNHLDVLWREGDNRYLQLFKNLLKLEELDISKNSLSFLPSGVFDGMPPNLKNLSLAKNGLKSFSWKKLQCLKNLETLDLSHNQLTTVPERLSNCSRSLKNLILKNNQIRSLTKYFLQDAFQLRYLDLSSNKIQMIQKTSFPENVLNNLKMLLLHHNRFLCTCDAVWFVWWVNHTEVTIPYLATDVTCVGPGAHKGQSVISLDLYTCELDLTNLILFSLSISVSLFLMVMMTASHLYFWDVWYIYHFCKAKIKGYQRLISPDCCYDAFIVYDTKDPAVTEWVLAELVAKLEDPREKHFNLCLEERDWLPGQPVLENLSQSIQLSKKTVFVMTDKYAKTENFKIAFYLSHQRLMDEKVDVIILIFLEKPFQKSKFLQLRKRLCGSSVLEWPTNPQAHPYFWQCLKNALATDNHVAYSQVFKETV
Procedure: This procedure describes a method for assaying human TLR7 (hTLR7) agonist activity of the compounds disclosed in this specification.
HEK-Blue™ TLR7 cells were added to each well of a 384-well tissue-culture plate (15,000 cells per well) and incubated 16-18 h at 37° C., 5% CO2. Compounds (100 nl) were dispensed into wells containing the HEK-Blue™ TLR cells and the treated cells were incubated at 37° C., 5% CO2. After 18 h treatment ten microliters of freshly-prepared Quanti-Blue” reagent (Invivogen) was added to each well, incubated for 30 min (37° C., 5% CO2) and SEAP levels measured using an Envision plate reader (OD=620 nm). The half maximal effective concentration values (EC50; compound concentration which induced a response halfway between the assay baseline and maximum) were calculated.

[2] = test system: CD69; test: Induction of CD69 in human whole blood; assay type: cell-based; settings: heparinized human whole blood, 17 hrs at 37° C.; 100% set to 1 uM resiquimod; average where assay performed multiple times; read-out: hWB CD69 EC50
Procedure: The induction of Type I interferon (IFN) MX-1 genes and the B-cell activation marker CD69 are downstream events that occur upon activation of the TLR7 pathway. The following is a human whole blood assay that measures their induction in response to a TLR7 agonist.
Heparinized human whole blood was harvested from human subjects and treated with test TLR7 agonist compounds at 1 mM. The blood was diluted with RPMI 1640 media and Echo was used to predot 10 nL per well giving a final concentration of 1 uM (10 nL in 10 uL of blood). After mixing on a shaker for 30 sec, the plates were covered and placed in a 37° C. chamber for o/n=17 hrs. Fixing/lysis buffer was prepared (5×→1× in H2O, warm at 37° C.; Cat #BD 558049) and kept the perm buffer (on ice) for later use.
For surface markers staining (CD69): prepared surface Abs: 0.045 ul hCD14-FITC (ThermoFisher Cat #MHCD1401)+0.6 ul hCD19-ef450 (ThermoFisher Cat #48-0198-42)+1.5 ul hCD69-PE (cat #BD555531)+0.855 ul FACS buffer. Added 3 ul/well, spin 1000 rpm for 1 min and mixed on shaker for 30 sec, put on ice for 30 mins. Stop stimulation after 30 min with 70 uL of prewarmed 1× fix/lysis buffer and use Feliex mate to resuspend (15 times, change tips for each plate) and incubate at 37 C for 10 min.
Centrifuge at 2000 rpm for 5 min aspirate with HCS plate washer, mix on shaker for 30 sec and then wash with 70 uL in dPBS and pelleted 2×s (2000 rpm for 5 min) and 50 ul wash in FACS buffer pelleted 1×s (2000 rpm for 5 min). Mix on shaker for 30 sec. For Intracellular markers staining (MX-1): Add 50 ul of BD Perm buffer III and mix on shaker for 30 sec. Incubate on ice for 30 min (in the dark). Wash with 50 uL of FACS buffer 2× (spin @2300 rpm×5 min after perm) followed by mixing on shaker for 30 sec. Resuspended in 20 ul of FACS buffer containing MX1 antibody ( )(4812)-Alexa 647: Novus Biologicals #NBP2-43704AF647) 20 ul FACS bf+0.8 ul hIgG+0.04 ul MX-1. Spin 1000 rpm for 1 min, mix on shaker for 30 se and the samples were incubated at RT in the dark for 45 min followed by washing 2×FACS buffer (spin @2300 rpm×5 min after perm). Resuspend 20 ul (35 uL total per well) of FACS buffer and cover with foil and place in 4° C. to read the following day. Plates were read on iQuePlus. The results were loaded into toolset and […] curves are generated in curve master. The y-axis 100% is set to 1 uM of resiquimod.

Row | SMILES | EC50 [1] [nM] | EC50 [2] [nM]
1 | CCCCNc1nc(N)nc2cnn(Cc3ccc(C(C)(C)N)cc3OC)c12 [Compound 101, 1-(4-(2-Aminopropan-2-yl)-2-methoxybenzyl)-N7-butyl-1H-pyrazolo[4,3-d]pyrimidine-5,7-diamine] | 76.6 | 11.6
2 | CCC[C@@H](CCO)Nc1nc(N)nc2cnn(Cc3ccc(C(C)(C)N)cc3OC)c12 [Compound 102, (S)-3-((5-Amino-1-(4-(2-aminopropan-2-yl)-2-methoxybenzyl)-1H-pyrazolo[4,3-d]pyrimidin-7-yl)amino)hexan-1-ol] | 7.2 | 1.8
3 | CCC[C@@H](CCO)Nc1nc(N)nc2cnn(Cc3cc(C(C)(C)N)ccc3OC)c12 [Compound 104, (S)-3-((5-Amino-1-(5-(2-aminopropan-2-yl)-2-methoxybenzyl)-1H-pyrazolo[4,3-d]pyrimidin-7-yl)amino)hexan-1-ol] | 34.5 | 12.7
4 | CCCCNc1nc(N)nc2cnn(Cc3cc(C(C)(C)N)ccc3OC)c12 [Compound 105, 1-(5-(2-Aminopropan-2-yl)-2-methoxybenzyl)-N7-butyl-1H-pyrazolo[4,3-d]pyrimidine-5,7-diamine] | – | 50.6
5 | CC[C@@H](CCO)Nc1nc(N)nc2cnn(Cc3ccc(C(C)(C)N)cc3OC)c12 [Compound 106, (S)-3-((5-amino-1-(4-(2-aminopropan-2-yl)-2-methoxybenzyl)-1H-pyrazolo[4,3-d]pyrimidin-7-yl)amino)pentan-1-ol] | 211 | 3.7
6 | CCCCNc1nc(N)nc2cnn(Cc3ccc(C4(N)COC4)cc3OC)c12 [Compound 107, 1-(4-(3-aminooxetan-3-yl)-2-methoxybenzyl)-N7-butyl-1H-pyrazolo-[4,3-d]pyrimidine-5,7-diamine] | 247 | 42.6
7 | CCCCNc1nc(N)nc2cnn(Cc3ccc(C(C)(O)CC)cc3OC)c12 (stereo not drawn) [Compound 112, 2-(4-{[5-amino-7-(butylamino)-1H-pyrazolo[4,3-d]pyrimidin-1-yl]methyl}-3-methoxyphenyl)butan-2-ol] | 95.9 | –
8 | CCCCNc1nc(N)nc2cnn(Cc3ccc(C(C)(O)CCC)cc3OC)c12 (stereo not drawn) [Compound 113, 2-(4-{[5-amino-7-(butylamino)-1H-pyrazolo[4,3-d]pyrimidin-1-yl]methyl}-3-methoxyphenyl)pentan-2-ol] | 256 | –
9 | CCCCNc1nc(N)nc2cnn(Cc3ccc(C(C)(O)C(F)(F)F)cc3OC)c12 (stereo not drawn) [Compound 115, 2-(4-{[5-amino-7-(butylamino)-1H-pyrazolo[4,3-d]pyrimidin-1-yl]methyl}-3-methoxyphenyl)-1,1,1-trifluoropropan-2-ol] | 146 | 340
10 | CCCCNc1nc(N)nc2cnn(Cc3ccc(C4(O)CNC4)cc3OC)c12 [Compound 116, 3-(4-{[5-amino-7-(butylamino)-1H-pyrazolo[4,3-d]pyrimidin-1-yl]methyl}-3-methoxyphenyl)-azetidin-3-ol] | 786 | –

Further lines, results first:

Row | EC50 [1] [nM] | EC50 [2] [nM] | SMILES
11 | 202 | – | COc1cc(C(C)(C)N)ccc1Cn1ncc2nc(N)nc(NCc3cc(C)on3)c21 [Compound 103, 1-(4-(2-Aminopropan-2-yl)-2-methoxybenzyl)-N7-((5-methylisoxazol-3-yl)methyl)-1H-pyrazolo[4,3-d]pyrimidine-5,7-diamine]
12 | 43.4 | 3.3 | CCC[C@@H](CCO)Nc1nc(N)nc2cnn(Cc3ccc(C4(N)COC4)cc3OC)c12 [Compound 108, (S)-3-((5-amino-1-(4-(3-aminooxetan-3-yl)-2-methoxybenzyl)-1H-pyrazolo[4,3-d]pyrimidin-7-yl)amino)hexan-1-ol]
13 | 4.6 | 3.5 | CCC[C@@H](CCO)Nc1nc(N)nc2cnn(Cc3ccc(C(C)(C)O)cc3OC)c12 [Compound 109, (3S)-3-[(5-amino-1-{[4-(2-hydroxypropan-2-yl)-2-methoxyphenyl]methyl}-1H-pyrazolo[4,3-d]pyrimidin-7-yl)amino]hexan-1-ol]
14 | 71.1 | – | CCCCNc1nc(N)nc2cnn(Cc3ccc(C(C)(C)O)cc3OC)c12 [Compound 110, 2-(4-{[5-amino-7-(butylamino)-1H-pyrazolo[4,3-d]pyrimidin-1-yl]methyl}-3-methoxyphenyl)propan-2-ol]
15 | 45.9 | – | CCCCNc1nc(N)nc2cnn(Cc3ccc(C(O)(CC)CC)cc3OC)c12 [Compound 111, 3-(4-{[5-amino-7-(butylamino)-1H-pyrazolo[4,3-d]pyrimidin-1-yl]methyl}-3-methoxyphenyl)pentan-3-ol]
16 | 410 | – | CCCCNc1nc(N)nc2cnn(Cc3ccc(C4(O)COC4)cc3OC)c12 [Compound 114, 3-(4-{[5-amino-7-(butylamino)-1H-pyrazolo[4,3-d]pyrimidin-1-yl]methyl}-3-methoxyphenyl)oxetan-3-ol]
17 | 25.9 | 804 | CCCCNc1nc(N)nc2cnn(Cc3ccc(C4(O)CCC4)cc3OC)c12 [Compound 117, 1-(4-{[5-amino-7-(butylamino)-1H-pyrazolo[4,3-d]pyrimidin-1-yl]methyl}-3-methoxyphenyl)cyclobutan-1-ol]
18 | 257 | 276 | CCCCNc1nc(N)nc2cnn(Cc3ccc(C4(O)CC4)cc3OC)c12 [Compound 118, 1-(4-{[5-amino-7-(butylamino)-1H-pyrazolo[4,3-d]pyrimidin-1-yl]methyl}-3-methoxyphenyl)cyclopropan-1-ol]
19 | 4950 | – | CCC[C@@H](CCO)Nc1nc(N)nc2cnn(Cc3nc(C(C)(C)N)ccc3OC)c12 [Compound 119, (3S)-3-[(5-amino-1-{[6-(2-aminopropan-2-yl)-3-methoxypyridin-2-yl]methyl}-1H-pyrazolo[4,3-d]pyrimidin-7-yl)amino]hexan-1-ol]
20 | 48.3 | – | CCC[C@@H](CCO)Nc1nc(N)nc2cnn(Cc3cnc(C(C)(C)N)cc3OC)c12 [Compound 120, (3S)-3-[(5-amino-1-{[6-(2-aminopropan-2-yl)-4-methoxypyridin-3-yl]methyl}-1H-pyrazolo[4,3-d]pyrimidin-7-yl)amino]hexan-1-ol]

From US20230348468A1, “1H-PYRAZOLO[4,3-d]PYRIMIDINE COMPOUNDS AS TOLL-LIKE RECEPTOR 7 (TLR7) AGONISTS” (BRISTOL-MYERS SQUIBB COMPANY, priority 2020, published 2023)
